Earlier results in patent US8101633B2, “Preparation and utility of substituted imidazopyridine compounds with hypnotic effects” (Auspex Pharmaceuticals, Inc., priority 2006, dated 2012).

Test system: cytochrome P450
Settings: background statement

## Cc1ccc(-c2nc3ccc(C)cn3c2CC(=O)N(C)C)cc1 [zolpidem, Zolpidem]
  share of net intrinsic clearance accounted for by imidazopyridyl methyl group oxidation: ~12%
  share of net intrinsic clearance accounted for by oxidation of the benzylic methyl group: approximately 84%
